In patent US8586533B2, “Treatment of early-stage osteoarthritis” (Kaohsiung Medical University, priority 2008, dated 2013):

Experiments:
[1] = tested on: rat articular cartilage; assay: Papain-induced OA rat model, Safranin O-stained GAG histomorphometry; format: in vivo, Sprague-Dawley rats; settings: for GAG level (red:total ratio) versus OA group: p<0.01
Experimental: (§1) Fifty-four 12-week-old male Sprague-Dawley rats (250-300 gm) were purchased from BioLASCO Taiwan and housed under standard laboratory conditions (temperature 24° C., 12-hour light-dark cycle) with food and water ad libitum. The animals were acclimatized to the laboratory environment for 1 week before the experiments.
(§2) Rats were divided into the following 3 groups: OA (OA induction without PTH [1-34] treatment) (n=18), OA plus PTH (PTH [1-34] treatment followed by OA induction) (n=18), and PTH (PTH [1-34] treatment without OA induction) (n=18). Each left knee, which served as the contralateral control joint, was injected with vehicle without PTH treatment or OA induction. The right knees were the study joints. OA was induced in the right knees of rats in the OA and OA plus PTH groups with intraarticular injections of 20 μl of 4% papain solution and 20 μl of 0.03M cysteine. The injections were given with a 26-gauge needle via the patellar tendon on days 1, 4, and 7 of the experiment (see e.g., Nucl Med Commun (1996) 17(6): 529-35). In the OA plus PTH group, after OA induction, the right knees were injected intraarticularly with 40 μl of 10 nM PTH (1-34) every 3 days until rats were killed. In the PTH group, the same PTH (1-34) treatment was performed but without OA induction. Six rats from each group were killed by CO2 inhalation at the same time points as rats in the OA plus PTH group, in which PTH (1-34) treatment was given for 1, 3, and 5 weeks.
(§3) After rats were killed, the knees were harvested, and the tibia plateaus with articular cartilage were collected and fixed with 10% neutral buffered formalin prior to histologic preparation. The samples were then decalcified in 10% formic acid/PBS. The decalcified tibia articular samples were paraffin embedded, and 5-μm microsections in the coronary plane were prepared. GAG was stained with Safranin O-fast green (1% Safranin O counterstained with 0.75% hematoxylin and then 1% fast green) (Sigma, St. Louis Mo.). Localized type II collagen and type X collagen were immunostained. Apoptotic cells in cartilage were TUNEL stained.
GAG was stained red by Safranin O, and the total and red-stained areas in the articular cartilage of each proximal tibia were measured using Image-Pro Plus software, version 5.0. The ratio of red stained area to total area (red:total) in each group was calculated.
Methods are as described above in the Sections entitled “Animal Experiments” and “Osteoarthritis Induction and PTH Treatment” except that the concentration of the administered dose of PTH (1-34) was 5 nM, 10 nM, or 100 nM. Safranin O-stained articular cartilage in the proximal tibia from the contralateral control joints of rats in the OA group and the study joints of rats in the OA and OA plus PTH groups are measured for the ratio of Safranin O-stained area to total area. The ratios of Safranin O-stained area to total area (red/total) among all groups after 5 weeks of PTH treatment are compared. Bars show the mean and SEM of 6 samples. Data are evaluated by one-way analysis of variance, and multiple comparisons are performed using Scheffe's method. **=P<0.01: the control joints versus study joints in the OA group at the indicated time point; ##=P<0.01: the OA joints versus study joints in groups of OA plus PTH 5 nM, OA plus PTH 10 nM, and OA plus PTH 100 nM.

[2] = tested on: rat articular cartilage; assay: Papain-induced OA rat model, type II and type X collagen immunohistochemistry; format: in vivo, Sprague-Dawley rats; settings: OA plus PTH group, 10 nM intraarticular
Experimental: as §1, §2, §3
The tibia articular sections were rehydrated, and the endogenous peroxidase in tissue was blocked with 3% hydrogen peroxide. Samples were digested by enzymes for epitope retrieval before incubation with primary antibodies (see e.g. J Histochem Cytochem (2002) 50(8): 1049-58). The optimal condition for enzyme digestion for type II collagen immunostaining was a mixture of 2.5% hyaluronidase and 1 mg/ml of Pronase in PBS (pH 7.4; Sigma) at 37° C. for 1 hour. […] The relative density of immunostaining (density/area; mean±SEM area 25.44±2.77 mm^2) was measured using Image-Pro Plus software, version 5.0 (Media Cybernetics).

Substance: PTH (1-34): 34-amino acid long peptide made up of amino-terminal amino acids 1 through 34 of human parathyroid hormone
- GAG level (red:total ratio) versus OA group ([1]; 5 nM, intraarticular every three days, 5 weeks): significantly higher
- GAG level (red:total ratio) versus OA group ([1]; 10 nM, intraarticular every three days, 5 weeks): significantly higher
- GAG level (red:total ratio) versus OA group ([1]; 100 nM, intraarticular every three days, 5 weeks): significantly higher
- GAG level, control group versus PTH-treated groups ([1]; 5, 10, or 100 nM, intraarticular every three days, 5 weeks): no significant difference
- red:total ratio versus contralateral control ([1]; OA plus PTH group, 10 nM intraarticular, 1 and 3 weeks, P<0.01): significantly lower
- red:total ratio versus contralateral control cartilage ([1]; OA plus PTH group, 10 nM intraarticular, 5 weeks): not significantly different
- red:total ratio (Safranin O-stained area to total area, GAG) versus OA group ([1]; OA plus PTH group, intraarticular 40 μl of 10 nM every 3 days, 1, 3, and 5 weeks, P<0.01): significantly higher
- red:total ratio, study cartilage versus contralateral control cartilage ([1]; PTH group (no OA induction), 10 nM intraarticular, any time point): no significant differences
- Immunolocalized type X collagen in cartilage compared with OA group ([2]; 3 and 5 weeks): less evident
- density of immunolocalized type II collagen versus contralateral control cartilage ([2]; 3 weeks): not different
- density of immunolocalized type II collagen versus OA group ([2]; 3 weeks, P<0.05): significantly higher
- density of immunolocalized type II collagen versus OA group (P<0.01) and contralateral control (P<0.05) ([2]; 5 weeks): significantly higher
